This is an account of results in ChEMBL document CHEMBL1151565, “Biological evaluation of two potent inhibitors of Trypanosoma cruzi epimastigotes against the intracellular form of the parasite” (1996).

Where “and” joins values, the source holds several entries; their conditions need not be identical. Equal values may be shown once.

What all share (assay type): functional
Experiment [1] is described as follows: Compound was tested for its activity against T. cruzi-infected L6E9 myoblasts at a concentration of 40 ug/mL.
A short description of experiment [2]: Compound was tested for its activity against T. cruzi-infected L6E9 myoblasts expressed as parasites number per 100 myoblasts at no concentration at 72h.
The nature of experiment [3]: Compound was tested for its activity against T. cruzi-infected L6E9 myoblasts expressed as parasites number per 100 myoblasts at no concentration at 24 h.
Experiment [4] is described as follows: Compound was tested for its activity against T. cruzi-infected L6E9 myoblasts expressed as parasites number per 100 myoblasts at no concentration at 48 hr.
Experiment [5] can be described thus: Compound was tested for its activity against T. cruzi-infected L6E9 myoblasts at no concentration at 48 hr.
Experiment [6] in a line: Compound was tested for its activity against T. cruzi-infected L6E9 myoblasts expressed as parasites number per 100 myoblasts at a concentration of 30 ug/mL.
The nature of experiment [7]: Compound was tested for its activity against T. cruzi-infected L6E9 myoblasts at no concentration at 24 h.
Experiment [8] is described as follows: Compound was tested for its activity against T. cruzi-infected L6E9 myoblasts at no concentration at 72h.
The nature of experiment [9]: Compound was tested for its activity against T. cruzi-infected L6E9 myoblasts at a concentration of 30 ug/mL.
Experiment [10] is described as follows: Compound was tested for its activity against T. cruzi-infected L6E9 myoblasts expressed as parasites number per 100 myoblasts at a concentration of 5 ug/mL.
Experiment [11] is described as follows: Compound was tested for its activity against T. cruzi-infected L6E9 myoblasts at a concentration of 5 ug/mL.
The nature of experiment [12]: Compound was tested for its activity against T. cruzi-infected L6E9 myoblasts at a concentration of 10 ug/mL.

As for `CCSC(=O)OC/C=C(\C)CC/C=C(\C)CCC1OC1(C)C` (stereo unspecified), the Myoblast with parasites in [1] is 10.25% and 2.75%; in [5] it was 16.25%; in experiment [7] it was 21.25%; in experiment [8], 20.5%; in experiment [9] it was 23.25% and 9.75%. Besides, the “Parasites no. per 100 Myoblasts” value in experiment [2] is 694.5; in experiment [3], 46.5; in [4], 118; in [6], 77.75 and 27.
For `c1ccc(Oc2ccc(OCCOC3CCCCO3)cc2)cc1` (stereo unspecified), the “Parasites no. per 100 Myoblasts” value was 90.25 and 113.75 in experiment [10]; 107 in [4]. The Myoblast with parasites in [5] is 24.5%; in [11] it was 22.5% and 22%; in experiment [12], 21.25% and 12.5%; in experiment [7], 21.25%; in experiment [8], 18.25%.
